Results taken from patent US8835438B2, “Method of treating memory/learning dysfunctions caused by schizophrenia with lurasidone” (Sumitomo Dainippon Pharma Co., Ltd., priority 2004, dated 2014).
Entries after “also recorded” stand apart in the source; their conditions may differ. Marks after values point to notes of the source that are not given here.

What was measured:
[1] = test system: MK-801-induced memory/learning dysfunctions; experiment: Step-through passive avoidance response test, MK-801-induced memory/learning dysfunctions; type: in vivo, Wistar male rats
Protocol: Wistar male rats (7 weeks old) were used. […] Serotonin 5-HT 1A receptor antagonist WAY-100635 or noradrenaline a2 receptor antagonist 1-PP was dissolved in a physiological saline solution (Otsuka Pharmaceutical Co., Ltd.) and used as a test compound. As an NMDA type receptor antagonist, MK-801 hydrogen maleate (SIGMA-ALDRICH M-107) was dissolved in a physiological saline solution (Otsuka Pharmaceutical Co., Ltd.). […] For the evaluation of state-dependency of MC-801, MK-801 was administered before the training session, and a physiological saline solution was administered before the testing session instead. The dosing value thereof was 5 ml/kg for each.
The step-through type passive avoidance response test was carried out in the following manners with the use of an apparatus consisting of a light-dark box, a slide door dividing the light-dark box and a shock generator (manufactured by O'hara & Co., Ltd., PA-2030A, PA-3001A) as an experimental apparatus. Namely, on Day 1 of the experiment, after a test compound and MK-801 were administered, the rats were put into the light box of the experimental apparatus where the back of each rat was directed to the dark box. Then, 10 seconds later, a slide door set at the border between the dark box and the light box was opened. Due to the habits of the rats, once the rats entered into the dark box, the slide door was quickly closed. At three seconds after entering into the dark box, an electroconvulsive shock ([…], for 3 seconds) was given to the rats. The period between the time just after the slide door was opened and the time at which the rats entered into the dark box was measured as a step-through latency. […] On Day 2 of the experiment, the testing session was carried out about 24 hours after the training session. Thirty minutes prior to the testing session, MK-801 or a vehicle thereof, i.e., a physiological saline solution, was subcutaneously administered to the rats. The procedures of the testing session were carried out in the same manner to the training session except that no electroconvulsive shock was given. The step-through latency at the testing session was measured up to 300 seconds, and the step-through latency over 300 seconds was regarded as 300 seconds. […] The statistical analysis of the % of animals avoiding was done by x^2 test with Bonferroni's correction. The animals were used in a group of 10 to 25 animals per group, and the data was expressed by percentage.

[2] = test system: memory/learning dysfunctions in the passive avoidance response; experiment: Passive avoidance response test, drug administered alone without MK-801; type: in vivo, Wistar male rats; conditions: drug alone without MK-801, passive avoidance response, rats
Protocol: Then, 10 seconds later, a slide door set at the border between the dark box and the light box was opened. Due to the habits of the rats, once the rats entered into the dark box, the slide door was quickly closed. At three seconds after entering into the dark box, an electroconvulsive shock ([…], for 3 seconds) was given to the rats. The period between the time just after the slide door was opened and the time at which the rats entered into the dark box was measured as a step-through latency. […] On Day 2 of the experiment, the testing session was carried out about 24 hours after the training session. […] The procedures of the testing session were carried out in the same manner to the training session except that no electroconvulsive shock was given. The step-through latency at the testing session was measured up to 300 seconds, and the step-through latency over 300 seconds was regarded as 300 seconds. […] The statistical analysis of the % of animals avoiding was done by x^2 test with Bonferroni's correction. The animals were used in a group of 10 to 25 animals per group, and the data was expressed by percentage.

[3] = test system: methamphetamine-induced hyperponesis; conditions: rats; reflects anti-psychotic activity; cited from earlier work
[4] = MK-801 administered only in the training session
[5] = MK-801 prior to both training and testing sessions, MK-801 + drug 1 mg/kg p.o.
[6] = MK-801 prior to both training and testing sessions, MK-801 + drug 3 mg/kg p.o.
[7] = MK-801 prior to training session only, MK-801 + drug 3 mg/kg p.o.
[8] = MK-801 administered in both training and testing sessions
[9] = MK-801 prior to both training and testing sessions, MK-801 + drug 0.3 mg/kg p.o.
[10] = MK-801 prior to both training and testing sessions, MK-801 + drug 10 mg/kg p.o.
[11] = MK-801 prior to both training and testing sessions, MK-801 + drug 0.1 mg/kg p.o.

Row | SMILES | % of animals avoiding [1, 5] | % of animals avoiding [1, 6] | Minimum dose to induce memory dysfunction by single application [2] | drug efficacy on memory dysfunction (in words) [1, 8] | % of animals avoiding [1, 9] | % of animals avoiding [1, 10] | further results
1 | Cl.Cl.c1cnc(N2CCNCC2)nc1 [1-PP, 1-(2-pyrimidyl)piperazine dihydrochloride] | 47* % | 67* % |  |  |  |  | drug efficacy on memory dysfunction (in words) ([1]; MK-801 administered in both training and testing sessions, dihydrochloride): memory/learning improving efficacy is recognized; also recorded: a significant improving activity was observed; drug efficacy on memory dysfunction (in words) [1, 4]: no drug efficacy; % of animals avoiding [1, 7]: 8%
2 | O=C1CCc2ccc(OCCCCN3CCN(c4cccc(Cl)c4Cl)CC3)cc2N1 [Aripiprazole, aripiprazole] | 16% | 16% | 10 mg/kg, p.o | no drug efficacy was observed |  |  | 
3 | CN1CCN(C2=Nc3cc(Cl)ccc3Nc3ccccc32)CC1 [Clozapine, clozapine] | 36* % | 20% | 10 mg/kg, p.o |  | 44* % | 10% | 
4 | O=C(CCCN1CCC(O)(c2ccc(Cl)cc2)CC1)c1ccc(F)cc1 [Haloperidol] | 15% | 10% | 10 mg/kg, p.o | no drug efficacy was observed | 5% |  | % of animals avoiding [1, 11]: 0%
5 | O=C1[C@@H]2[C@H]3CC[C@H](C3)[C@@H]2C(=O)N1C[C@@H]1CCCC[C@H]1CN1CCN(c2nsc3ccccc23)CC1 [Lurasidone, lurasidone] | 35* % | 75* % | >30 mg/kg, p.o | memory/learning improving efficacy is recognized; also recorded: a significant improving activity was observed | 40* % | 70* % | drug efficacy on memory dysfunction (in words) [1, 4]: no drug efficacy; % of animals avoiding ([1]; MK-801 prior to training session only, MK-801 + drug 0.3 mg/kg p.o.): 20%; % of animals avoiding ([1]; MK-801 prior to training session only, MK-801 + drug 1 mg/kg p.o.): 20%; % of animals avoiding [1, 7]: 30%; % of animals avoiding ([1]; MK-801 prior to training session only, MK-801 + drug 10 mg/kg p.o.): 20%
6 | C[C@]12N[C@H](Cc3ccccc31)c1ccccc12 [MK-801] |  |  |  |  |  |  | % of animals avoiding, group treated with MK-801 ([1]; MK-801 0.05 mg/kg s.c. alone, administered prior to training session only): 0%; step-through latency (in words) ([1]; MK-801 before training session and saline before testing session, compared with MK-801 in both sessions): nearly equal decrease in the step-through latency
7 | Cc1cc2c(s1)Nc1ccccc1N=C2N1CCN(C)CC1 [Olanzapine, olanzapine] | 20% | 20% |  |  | 15% | 10% | 
8 | OCCOCCN1CCN(C2=Nc3ccccc3Sc3ccccc32)CC1 [Quetiapine, quetiapine] | 20% | 30% | 30 mg/kg, p.o | memory/learning improving efficacy is recognized; also recorded: a significant improving activity was observed | 10% | 50* % | dose to inhibit 50% of methamphetamine-induced hyperponesis (ED50) [3]: about 100 mg/kg, p.o.
9 | Cc1nc2n(c(=O)c1CCN1CCC(c3noc4cc(F)ccc34)CC1)CCCC2 [Risperidone, risperidone] | 28% | 10% | 3 mg/kg, p.o | memory/learning improving efficacy is recognized | 20% |  | % of animals avoiding [1, 11]: 20%
10 | COc1ccccc1N1CCN(CCN(C(=O)C2CCCCC2)c2ccccn2)CC1 [WAY-1000635] | 40* % | 30% |  |  | 30% |  | drug efficacy on memory dysfunction (in words) ([1]; MK-801 administered in both training and testing sessions, listed as WAY-100635): a significant improving activity was observed; drug efficacy on memory dysfunction (in words) ([1]; MK-801 administered in both training and testing sessions, listed as serotonin 5-HT 1A receptor antagonist): memory/learning improving efficacy is recognized
